Drawing on paper doi:10.1101/2023.02.24.529844v1, “Characterization of new highly selective pyrazolo[4,3-d]pyrimidine inhibitor of CDK7” (biorxiv, 2023), this text covers IC50 and remaining activity for one molecule.

One assay has as its target CDK9/cyclin T (Homo sapiens, UniProt P50750). In words: biochemical. On the set-up: radiometric kinase inhibition assay with [gamma-33P]ATP, P-81 phosphocellulose spotting, digital image analysis. How it is done:
(§1) The kinase inhibition assay was performed as previously described. Briefly, all tested kinases were incubated with specific substrates in the presence of ATP, 0.05 µCi [γ^33P]ATP and the LGR6768 compound in a final volume of 10 µl. The reaction was stopped by adding 3% aq. H3PO4. Aliquots were spotted onto P-81 phosphocellulose (Whatman), washed three times with 0.5% aq. H3PO4 and air-dried. Kinase inhibition was quantified using a FLA-7000 digital image analyser (Fujifilm). The drug doses required to decrease kinase activities by 50%, represented by the IC50 values, were determined from dose[…]response curves. The selectivity profiling of LGR6768 was performed on a panel of 50 kinases, including known off-targets of other structurally related pyrazolo[4,3-d]pyrimidines or isosteres, such as roscovitine or CR8 [31]. Given the high structural similarity within the CDK family, we also evaluated LGR6768 against 14 CDKs to assess its selectivity across them. The compound was applied at a 1 µM concentration, and the experiment confirmed selective reduction of the enzymatic activity of CDK7 to 4%.

The target in the next assay is CDK1/cyclin B (Homo sapiens, UniProt P06493). Description: biochemical. On the set-up: radiometric kinase inhibition assay with [gamma-33P]ATP, P-81 phosphocellulose spotting, digital image analysis. How it is done: as §1
Chain of CDK1/cyclin B (P06493 whole entry): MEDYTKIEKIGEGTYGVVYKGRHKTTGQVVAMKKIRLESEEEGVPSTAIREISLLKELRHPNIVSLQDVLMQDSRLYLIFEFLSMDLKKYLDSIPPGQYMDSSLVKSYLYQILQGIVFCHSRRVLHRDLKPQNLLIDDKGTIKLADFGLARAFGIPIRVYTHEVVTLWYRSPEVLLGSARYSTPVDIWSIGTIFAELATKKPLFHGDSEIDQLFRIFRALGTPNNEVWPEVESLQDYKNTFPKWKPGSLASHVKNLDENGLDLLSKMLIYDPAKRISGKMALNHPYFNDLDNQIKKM
Chain of CDK1/cyclin B (P14635 whole entry partner): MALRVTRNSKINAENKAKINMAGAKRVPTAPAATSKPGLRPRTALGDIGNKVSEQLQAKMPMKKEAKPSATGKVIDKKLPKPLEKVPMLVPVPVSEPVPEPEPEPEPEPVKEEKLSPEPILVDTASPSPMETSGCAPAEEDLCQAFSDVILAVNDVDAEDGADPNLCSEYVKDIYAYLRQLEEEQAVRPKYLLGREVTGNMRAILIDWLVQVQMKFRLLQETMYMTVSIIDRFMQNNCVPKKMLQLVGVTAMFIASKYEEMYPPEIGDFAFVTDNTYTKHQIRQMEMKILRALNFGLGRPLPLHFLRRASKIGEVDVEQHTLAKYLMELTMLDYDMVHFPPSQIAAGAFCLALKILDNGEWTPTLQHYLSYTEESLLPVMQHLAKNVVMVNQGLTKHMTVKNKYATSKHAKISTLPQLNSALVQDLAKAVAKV
The target of the next assay is CDK4/cyclin D1 (Homo sapiens, UniProt P11802). Description: biochemical. More on the design: radiometric kinase inhibition assay with [gamma-33P]ATP, P-81 phosphocellulose spotting, digital image analysis. As for the experimental part: as §1
Chain of CDK4/cyclin D1 (P11802 whole entry): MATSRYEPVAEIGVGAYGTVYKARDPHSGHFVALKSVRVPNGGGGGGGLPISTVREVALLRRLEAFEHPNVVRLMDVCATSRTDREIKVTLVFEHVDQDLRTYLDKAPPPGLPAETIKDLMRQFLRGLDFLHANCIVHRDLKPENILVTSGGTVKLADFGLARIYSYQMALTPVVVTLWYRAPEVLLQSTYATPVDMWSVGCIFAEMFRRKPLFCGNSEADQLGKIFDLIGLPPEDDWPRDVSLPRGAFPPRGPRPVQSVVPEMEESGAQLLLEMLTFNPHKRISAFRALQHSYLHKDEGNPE
Chain of CDK4/cyclin D1 (P24385 whole entry partner): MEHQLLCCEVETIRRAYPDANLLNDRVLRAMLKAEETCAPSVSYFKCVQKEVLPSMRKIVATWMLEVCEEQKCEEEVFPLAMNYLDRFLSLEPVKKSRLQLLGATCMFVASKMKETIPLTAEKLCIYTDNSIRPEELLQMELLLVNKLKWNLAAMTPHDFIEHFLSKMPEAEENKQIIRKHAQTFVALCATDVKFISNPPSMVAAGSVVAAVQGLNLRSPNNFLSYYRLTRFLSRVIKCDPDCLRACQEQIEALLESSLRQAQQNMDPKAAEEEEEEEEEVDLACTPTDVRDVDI
The target of the next assay is CDK2/cyclin A (Homo sapiens, UniProt P24941). Description: biochemical. On the set-up: radiometric kinase inhibition assay with [gamma-33P]ATP, P-81 phosphocellulose spotting, digital image analysis. As for the experimental part:
as §1

The next assay deals with CDK2/cyclin E (Homo sapiens, UniProt P24941). In words: biochemical. More on the design: radiometric kinase inhibition assay with [gamma-33P]ATP, P-81 phosphocellulose spotting, digital image analysis. As for the experimental part: as §1
The target in a further assay is CDK5/p25 (Homo sapiens, UniProt Q00535). In words: biochemical. More on the design: radiometric kinase inhibition assay with [gamma-33P]ATP, P-81 phosphocellulose spotting, digital image analysis. How it is done:
as §1

The target of the next assay is T1, CK1δ (Homo sapiens, UniProt P48730).
T1 construct: gene CSNK1D; Eurofins Discovery kinase panel
T1 sequence (P48730 whole entry): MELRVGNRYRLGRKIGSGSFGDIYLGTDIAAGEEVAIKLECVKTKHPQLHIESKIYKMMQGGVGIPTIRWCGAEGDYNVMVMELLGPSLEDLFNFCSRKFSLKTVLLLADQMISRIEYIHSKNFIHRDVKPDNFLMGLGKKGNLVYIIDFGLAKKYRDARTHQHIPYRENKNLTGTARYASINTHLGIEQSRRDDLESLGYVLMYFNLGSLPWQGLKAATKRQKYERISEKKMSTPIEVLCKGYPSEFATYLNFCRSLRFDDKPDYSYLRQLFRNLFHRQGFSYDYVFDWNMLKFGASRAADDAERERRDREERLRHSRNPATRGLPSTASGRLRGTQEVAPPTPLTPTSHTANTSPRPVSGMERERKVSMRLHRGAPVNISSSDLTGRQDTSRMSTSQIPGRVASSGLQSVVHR
In words: Eurofins kinase selectivity panel. It counts as biochemical. Particulars: read-out: residual activity at 1 μM.

Another assay addresses T2, CDK16 (Homo sapiens, UniProt Q00536).
T2 construct: Eurofins Discovery kinase panel
In words: Eurofins kinase selectivity panel. It counts as biochemical. The settings on record: read-out: residual activity at 1 μM.

For the next assay, the target named is T3, CDK7 (Homo sapiens, UniProt P50613).
T3 construct: recombinant CDK7; with Cyclin-H
T3 sequence (P50613 2-346): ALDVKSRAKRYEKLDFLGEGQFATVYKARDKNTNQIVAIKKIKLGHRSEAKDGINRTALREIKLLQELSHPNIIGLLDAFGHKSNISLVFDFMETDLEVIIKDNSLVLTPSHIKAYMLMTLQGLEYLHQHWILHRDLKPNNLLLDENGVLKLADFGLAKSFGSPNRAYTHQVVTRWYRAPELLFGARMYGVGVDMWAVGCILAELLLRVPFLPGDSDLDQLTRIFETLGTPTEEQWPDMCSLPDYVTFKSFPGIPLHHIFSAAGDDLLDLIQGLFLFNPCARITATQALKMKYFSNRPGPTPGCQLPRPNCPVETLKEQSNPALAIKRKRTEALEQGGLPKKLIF
T3 sequence (P51946 whole entry partner): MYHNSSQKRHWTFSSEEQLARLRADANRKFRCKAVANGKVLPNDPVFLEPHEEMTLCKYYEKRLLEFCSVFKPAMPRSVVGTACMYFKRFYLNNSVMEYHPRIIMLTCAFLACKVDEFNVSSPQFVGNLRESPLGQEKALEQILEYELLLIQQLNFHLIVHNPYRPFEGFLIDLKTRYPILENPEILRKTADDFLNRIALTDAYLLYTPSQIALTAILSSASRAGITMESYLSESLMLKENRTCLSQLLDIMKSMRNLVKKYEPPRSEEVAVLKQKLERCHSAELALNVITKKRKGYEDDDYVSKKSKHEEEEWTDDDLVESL
T3 sequence (P51948 whole entry partner): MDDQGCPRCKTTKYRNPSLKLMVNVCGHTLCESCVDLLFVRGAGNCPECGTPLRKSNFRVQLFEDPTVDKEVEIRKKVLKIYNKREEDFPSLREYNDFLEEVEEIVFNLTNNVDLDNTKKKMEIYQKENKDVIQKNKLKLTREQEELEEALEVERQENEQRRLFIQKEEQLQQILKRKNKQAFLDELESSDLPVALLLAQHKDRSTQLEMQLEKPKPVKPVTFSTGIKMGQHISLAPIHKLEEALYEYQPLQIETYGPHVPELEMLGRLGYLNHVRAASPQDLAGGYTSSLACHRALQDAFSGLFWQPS
Description: [gamma-33P]ATP radiometric kinase assay. It counts as biochemical.

Chain of CDK9/cyclin T (P50750 whole entry): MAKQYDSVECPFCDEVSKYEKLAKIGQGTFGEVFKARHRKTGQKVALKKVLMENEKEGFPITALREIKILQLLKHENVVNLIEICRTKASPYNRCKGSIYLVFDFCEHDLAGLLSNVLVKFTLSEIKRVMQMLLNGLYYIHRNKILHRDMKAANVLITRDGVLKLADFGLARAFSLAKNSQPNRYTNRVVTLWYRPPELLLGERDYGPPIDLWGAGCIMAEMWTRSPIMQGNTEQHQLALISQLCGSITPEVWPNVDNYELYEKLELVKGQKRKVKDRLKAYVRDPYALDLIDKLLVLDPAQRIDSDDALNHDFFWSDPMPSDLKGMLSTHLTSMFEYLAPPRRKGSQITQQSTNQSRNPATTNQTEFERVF
Chain of CDK9/cyclin T (O60563 whole entry partner): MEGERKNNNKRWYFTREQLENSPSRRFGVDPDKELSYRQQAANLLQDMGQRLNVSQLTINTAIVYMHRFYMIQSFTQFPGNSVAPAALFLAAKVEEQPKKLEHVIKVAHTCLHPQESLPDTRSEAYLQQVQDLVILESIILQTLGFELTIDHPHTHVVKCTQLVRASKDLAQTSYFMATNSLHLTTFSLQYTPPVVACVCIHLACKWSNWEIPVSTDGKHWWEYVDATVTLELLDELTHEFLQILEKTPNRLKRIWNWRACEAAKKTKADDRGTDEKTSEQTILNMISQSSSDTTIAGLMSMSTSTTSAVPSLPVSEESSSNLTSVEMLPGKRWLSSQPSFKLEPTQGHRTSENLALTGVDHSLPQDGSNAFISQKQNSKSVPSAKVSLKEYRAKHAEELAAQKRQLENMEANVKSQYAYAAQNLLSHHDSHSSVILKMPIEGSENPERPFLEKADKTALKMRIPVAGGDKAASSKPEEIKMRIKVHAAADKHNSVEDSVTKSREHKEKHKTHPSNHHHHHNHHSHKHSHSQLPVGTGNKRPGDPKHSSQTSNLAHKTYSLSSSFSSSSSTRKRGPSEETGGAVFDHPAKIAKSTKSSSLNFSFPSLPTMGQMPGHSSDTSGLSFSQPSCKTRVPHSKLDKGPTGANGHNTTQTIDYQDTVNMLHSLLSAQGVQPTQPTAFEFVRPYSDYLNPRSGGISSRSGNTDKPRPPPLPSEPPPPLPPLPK
T2 sequence (Q00536 whole entry): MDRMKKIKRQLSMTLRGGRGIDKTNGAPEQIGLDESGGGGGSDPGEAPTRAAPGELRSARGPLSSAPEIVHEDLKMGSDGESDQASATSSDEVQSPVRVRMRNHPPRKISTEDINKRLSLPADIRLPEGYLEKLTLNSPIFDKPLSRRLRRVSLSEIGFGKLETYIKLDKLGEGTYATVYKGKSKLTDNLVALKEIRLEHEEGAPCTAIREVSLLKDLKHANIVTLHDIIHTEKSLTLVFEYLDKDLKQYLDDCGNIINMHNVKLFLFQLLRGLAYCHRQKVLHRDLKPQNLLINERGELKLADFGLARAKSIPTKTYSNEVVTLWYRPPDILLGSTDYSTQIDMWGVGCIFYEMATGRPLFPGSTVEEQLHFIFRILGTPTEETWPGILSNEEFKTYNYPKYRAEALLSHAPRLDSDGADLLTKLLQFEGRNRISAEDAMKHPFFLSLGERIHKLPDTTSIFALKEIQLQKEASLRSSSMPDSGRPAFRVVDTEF
Chain of CDK5/p25 (Q00535 whole entry): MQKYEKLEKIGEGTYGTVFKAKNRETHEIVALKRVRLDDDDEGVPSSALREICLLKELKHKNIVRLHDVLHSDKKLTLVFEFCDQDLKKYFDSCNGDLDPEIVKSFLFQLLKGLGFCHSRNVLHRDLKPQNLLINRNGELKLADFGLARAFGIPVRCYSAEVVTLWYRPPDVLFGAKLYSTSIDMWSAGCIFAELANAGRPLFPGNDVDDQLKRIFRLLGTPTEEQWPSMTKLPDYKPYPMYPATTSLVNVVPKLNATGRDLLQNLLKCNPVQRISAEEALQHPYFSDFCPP
Chain of CDK5/p25 (Q15078 whole entry partner): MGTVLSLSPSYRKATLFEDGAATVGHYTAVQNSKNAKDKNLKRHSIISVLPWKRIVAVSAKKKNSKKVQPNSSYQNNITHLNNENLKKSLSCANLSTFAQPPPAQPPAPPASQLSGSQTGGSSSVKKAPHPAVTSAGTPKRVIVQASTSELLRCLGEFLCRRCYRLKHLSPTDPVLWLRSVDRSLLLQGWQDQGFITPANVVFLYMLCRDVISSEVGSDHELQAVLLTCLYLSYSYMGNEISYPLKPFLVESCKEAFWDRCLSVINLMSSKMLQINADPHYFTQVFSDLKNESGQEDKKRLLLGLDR

As to `CC(C)c1n[nH]c2c(NCc3ccccc3-c3ccccc3)nc(SC3CCNCC3)nc12` [compound 4, 5-(piperidin-4-yl)thio-3-isopropyl-7-(2-phenylbenzyl)amino-1(2)H-pyrazolo[4,3-d]pyrimidine], the IC50 against CDK9/cyclin T was 6550 nM; against CDK1/cyclin B it was 5140 nM; against CDK4/cyclin D1, greater than 20000 nM; on CDK2/cyclin A, 500 nM; at CDK2/cyclin E it was 250 nM; at CDK5/p25, 1120 nM. The IC50 against CDK7 turned out to be 20 nM. Besides, the remaining activity at 1 µM on CK1δ and at CDK16 was 19% throughout.
